Test results from ChEMBL document CHEMBL1201862, “PubChem BioAssay data set” (2004).
Calls of active or inactive are those of the source.

How the values were obtained:
[1] = HIV-1 AD8 envelope cell-cell fusion blockers – cherry-pick, dose response (AID 652062); type: functional, cell-based;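 further: luciferase signal from cell-cell fusion driven by HIV-1 clade B AD8 Env; potency is for inhibitors of fusion seen as a drop in luminescence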
[2] = HEK-293T viability loss, compound-treated – cell-based, uHTS hits, cytotoxicity control for B/T-cell NF-kB inhibitor project, dose response (AID 489019); type: functional;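 further: IC50 reflects cytotoxicity as loss of cell viability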
cells = type: functional, cell-based; details: HEK-CNG
[3] = loss of viability in HepG2 cells – cell-based, CellTiter-Glo, cherry-picked, cytotoxicity control for Shn3 inhibitor project, dose response (AID 624134); type: functional
Galanin receptor type 3 = target: T1, Galanin receptor type 3 (Homo sapiens, UniProt O60755); test: Fluorescence-based cell-based primary high throughput dose response assay to identify antagonists of the Galanin Receptor 3 (GalR3).; type: functional
T1 sequence (O60755 whole entry): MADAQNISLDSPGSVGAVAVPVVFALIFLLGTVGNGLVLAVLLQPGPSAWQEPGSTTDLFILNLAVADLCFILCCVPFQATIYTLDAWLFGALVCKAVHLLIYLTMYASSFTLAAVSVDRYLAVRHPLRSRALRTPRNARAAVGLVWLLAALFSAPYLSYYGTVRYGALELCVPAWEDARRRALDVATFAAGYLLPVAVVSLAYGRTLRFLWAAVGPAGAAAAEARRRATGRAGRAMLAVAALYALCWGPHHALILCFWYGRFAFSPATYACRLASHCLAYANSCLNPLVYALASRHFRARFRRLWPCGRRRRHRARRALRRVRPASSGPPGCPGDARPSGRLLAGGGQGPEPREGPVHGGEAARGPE

Jurkat = test: blockers of NF-kB activation in T cells – Jurkat, luciferase reporter, luminescence, B- and T-cell, dose response (AID 489004); type: functional, cell-based; details: Homo sapiens;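 further: NF-kB luciferase reporter Jurkat cells stimulated with PMA plus ionomycin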
[4] = non-specific 3'UTR reporter inhibition in Clone20-Shn3RL – cell-based, Renilla luciferase, cherry-picked, counter-screen for Shn3 inhibitor project, dose response (AID 624133); type: functional
INS1 = test: INS-1E survival protection against cytokine death – cell-based, luminescence, retest, dose response (AID 449756); type: functional; details: Rattus norvegicus;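 further: cell death triggered by IL-1 beta plus TNF-alpha plus IFN-gamma mixture; protective hits raise ATP signal compared with cytokine alone wells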
[5] = reduction of Shn3 3'UTR-driven luciferase in osteoblasts – cell-based, Clone20 osteoblasts, firefly luciferase, cherry-picked, dose response (AID 624132); type: functional;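 further: firefly luciferase luminescence from reporter carrying the Shn3 3'UTR in osteoblasts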
[6] = blockers of HIV-1 ZM109 envelope-driven cell-cell fusion – HeLa effector, CEM target cells, luciferase, cherry-pick, dose response (AID 652058); type: functional, cell-based;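 further: luciferase signal from HIV-1 Env mediated cell-cell fusion of effector and target cells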
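Wherever EC50 is given: target is galanin receptor GalR3 read with a cAMP biosensor in HEK293 cells.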

For COc1cc(CSc2nnnn2-c2ccc(C)cc2)cc(OC)c1OC, the AC50 [1] was 4.54 µM (active), the IC50 [2] was > 80 µM (inactive) and the EC50 (cells) was > 29.9 µM (inactive). The AC50 [3] was 2.51 µM (active), the IC50 (Galanin receptor type 3) was 1.22 µM (active) and the IC50 (Jurkat) was > 80 µM (inactive). The AC50 [4] was 2.16 µM (active), the AC50 (INS1) was 2.98 µM (active) and the AC50 [5] was 1.02 µM (active). The AC50 [6] was 4.94 µM (active).
